The record followed here is US11583507B2, “Direct AMPK activator compounds” (SOCIETE DES PRODUITS NESTLE S.A., priority 2018, dated 2023).

The target of data set [1] is T1, AMPK α2β1γ1 R298G (211 R298G) mutant (Homo sapiens, UniProt P54619+P54646+Q9Y478, R299G).
T1 construct: His; made in house; host or cells: bacteria
As to the kind of experiment: AMPK in vitro activity assay (HTRF-KinEASE), γ1 R298G mutant. The conditions noted are these: mutation in the γ1 AMP binding pocket. It is filed as biochemical. Here is the method:
(§1) Lusianthridin (CAS 87530-30-1) was isolated from Thunia alba fruit. It was sourced from Analyticon (NP-012362). The plant was purchased through Analyticon's biomaterial supplier in 2003. The country of origin is Nepal. The AMPK heterotrimers were expressed in bacteria and purified through the His-α subunit by nickel purification. AMPK complexes were purified through gel filtration and phosphorylated by incubation with CaMKKβ, and further purified with a final gel filtration purification step. Phosphorylated purified AMPK was incubated with varying concentrations of ligand for 30 mins using substrate and reagents from the HTRF-KinEASE Cisbio assay kit (STK S1 Kit). Phosphorylation of the substrate was measured by incubating with donor and acceptor antibodies for 2 h at room temperature as per the manufacturer's protocol (and Coulerie et al., (2016) PMID: 27792327) and phosphorylated peptide detected by performing HTRF. The 665 nm/620 nm ratio was determined and the results are plotted as fold activation compared to the respective AMPK complex without any compound.
On the technique in general: In TR-FRET formats the signal depends on donor and acceptor labels being close together.

Data set [2] concerns AMPK substrate, acetyl-CoA carboxylase (ACC). As to the kind of experiment: pACC HTRF assay in U2OS Flp-In T-REx cells. Type of data set: cell-based. Conditions: 1 h, varying concentrations, dose-dependent. Here is the method:
U2OS Flp-In T-REx cells were seeded at 100 K in a 96-well plate and left overnight at 37 C in DMEM GlutaMAX (Thermo Fisher Scientific) supplemented with 10% (vol/vol) FBS and 100 U/ml penicillin G, and 100 μg/ml streptomycin. Cells were treated for 1 h with varying concentrations of Lusianthridin in media lacking FBS and then cells were lysed in 50 μl of Cisbio lysis buffer #1 supplemented with blocking solution as per the manufacturer's protocol (Cisbio). Cells were lysed for 30 mins at room temperature before 16 μl of lysate was incubated with 4 μl of the HTRF antibodies (1:40 dilution of the acceptor and donor (p)ACC antibodies, as per the manufacturers protocol). Lysates were incubated overnight with the antibodies before 665 nm/620 nm ratio was determined using a MolecularDevices i3 plate reader (with a HTRF cartridge add-on). For western blot analysis, SDS-sample buffer was added to the remainder of the lysate, denatured at 95 C and then subjected to western blot analysis with phospho-specific and total ACC antibodies (Cell Signalling). Bands were visualized by incubating with Li-Cor secondary antibody and scanned on a Li-Cor Odyssey machine.

Another data set has as its target T2, AMPKα2β1γ1 (211) (Homo sapiens, UniProt P54619+P54646+Q9Y478).
T2 construct: His; made in house; host or cells: bacteria
Put plainly: AMPK in vitro activity assay (HTRF-KinEASE), phosphorylated bacterially-expressed complex. The conditions noted are these: fold activation vs complex without compound; 30 mins incubation. It is filed as biochemical. On the procedure: as §1

Data set [3] has as its target T3, AMPK α2β1γ1 S108A mutant (211 S108A) (Homo sapiens, UniProt P54619+P54646+Q9Y478, S108A).
T3 construct: His; made in house; host or cells: bacteria
Put plainly: AMPK in vitro activity assay (HTRF-KinEASE), β1 S108A mutant. It is filed as biochemical. Here is the method:
as §1

Another data set concerns the target T4, AMPKα1β1γ1 (111) (Homo sapiens, UniProt P54619+Q13131+Q9Y478).
T4 construct: His; made in house; host or cells: bacteria
Put plainly: AMPK in vitro activity assay (HTRF-KinEASE), α1-containing complex. Type of data set: biochemical. Conditions: fold activation vs complex without compound. Here is the method: as §1

Data set [4] deals with differentiated C2C12 cells. Put plainly: Glucose uptake (3H-2-deoxyglucose) into differentiated C2C12 cells. It is filed as cell-based. The conditions noted are these: Lusianthridin 100 μM for 4 h at 37 C. Here is the method:
C2C12 cells were maintained in DMEM GlutaMAX supplemented with 10% (vol/vol) FBS and 100 U/ml penicillin G, and 100 μg/ml streptomycin. C2C12 myoblasts were differentiated into myotubes by 7 days of culture in DMEM GlutaMAX supplemented with 2% (vol/vol) horse serum and antibiotics. Cells were transferred to serum-free media for 24 hours, before equilibrating with bicarbonate-free medium prior to treatment. Cells were treated with Control (DMSO 1% final concentration) or 100 μM Lusianthridin in the presence of ^3H-2-deoxyglucose (in Krebs-Hepes buffer containing sodium pyruvate). Cells were lysed and the quantity of ^3H determined in these samples using a scintillation counter.
Activation of AMPK in muscle cells has been previously shown to increase glucose uptake. […] Differentiated C2C12 cells were treated with either control or 100 μM Lusianthridin for 4 h at 37 C. Glucose uptake was determined by monitoring the uptake of ^3H-2-deoxyglucose into cells. […] This is consistent with the important role of AMPK in mediating glucose uptake in muscle.

The target in the next data set is T5, AMPK α2β2γ1 (221) (Homo sapiens, UniProt O43741+P54619+P54646).
T5 construct: His; made in house; host or cells: bacteria
As to the kind of experiment: AMPK in vitro activity assay (HTRF-KinEASE), β2-containing complex. Type of data set: biochemical. The conditions noted are these: fold activation vs complex without compound. On the procedure:
as §1

The subject of the next data set is primary hepatocytes. Put plainly: Lipogenesis ([1-14C]-acetate incorporation into fatty acids) in primary hepatocytes. Type of data set: cell-based, mouse. The conditions noted are these: 1 h at 37 C, varying concentrations. Here is the method: Hepatocyte isolation: The liver was first perfused with 50 ml perfusion buffer (Krebs-Hepes buffer with […] EDTA), followed with 50 ml collagenase A buffer (Krebs-Hepes buffer with 5 mM CaCl2 and 0.5 mg/ml collagenase). […] Hepatocytes were left to attach (3-4 h) and cultured overnight in M199 supplemented with antibiotics and 100 nM dexamethasone. Cells were used for experiments the following morning. For primary hepatocyte isolation see Example 4. For lipogenesis measurements in primary hepatocytes, cells were seeded at 600 K cells per well in a 6-well plate overnight. Media was replaced with fresh M199 media alone for 2 hours prior to incubation with varying concentrations of Lusianthridin for 1 h at 37 C, in the presence of [1-^14C]-acetate. The incorporation of [^14C] into fatty acids was determined in the lower organic layer after separation from the aqueous phase. […] Lipogenesis is controlled by the AMPK substrate ACC, and phosphorylation and inhibition of ACC by AMPK, leads to a decrease in lipogenesis. Lipogenesis was measured in primary hepatocytes by determining the incorporation of ^14C-labelled acetate into fatty acids. Lipogenesis was monitored in the presence or absence of varying concentrations of Lusianthridin for 1 h at 37 C. […] This observation is consistent with its ability to activate AMPK in hepatocytes, which leads to the phosphorylation and inhibition of ACC.

Data set [5] relates to AMPK α2β1γ1 ΔCBM mutant (211 ΔCBM). Put plainly: AMPK in vitro activity assay (HTRF-KinEASE), ΔCBM mutant. Type of data set: biochemical. The conditions noted are these: carbohydrate-binding module deleted. On the procedure:
as §1

The subject of data set [6] is mouse primary hepatocytes. As to the kind of experiment: MTT cytotoxicity assay in mouse primary hepatocytes. The conditions noted are these: 1 h at 37 C, Lusianthridin up to 100 μM.
Description: Mouse primary hepatocytes were treated with the indicated concentrations of Lusianthridin, Oligomycin and FCCP for 1 h at 37 C. Cell viability was determined by using an MTT assay as per the manufacturer's protocol.
For cytotoxicity experiments in primary hepatocytes, cells were seeded at 20 K cells per well in a 96-well plate overnight in M199 media. Hepatocytes were incubated with varying concentrations of Lusianthridin, Oligomycin or FCCP for 1 h at 37 C. The media was changed for media without phenol red, before performing an MTT assay as per the manufacturer's instructions (Thermo fisher, V131154).

T2 sequence (P54646 whole entry): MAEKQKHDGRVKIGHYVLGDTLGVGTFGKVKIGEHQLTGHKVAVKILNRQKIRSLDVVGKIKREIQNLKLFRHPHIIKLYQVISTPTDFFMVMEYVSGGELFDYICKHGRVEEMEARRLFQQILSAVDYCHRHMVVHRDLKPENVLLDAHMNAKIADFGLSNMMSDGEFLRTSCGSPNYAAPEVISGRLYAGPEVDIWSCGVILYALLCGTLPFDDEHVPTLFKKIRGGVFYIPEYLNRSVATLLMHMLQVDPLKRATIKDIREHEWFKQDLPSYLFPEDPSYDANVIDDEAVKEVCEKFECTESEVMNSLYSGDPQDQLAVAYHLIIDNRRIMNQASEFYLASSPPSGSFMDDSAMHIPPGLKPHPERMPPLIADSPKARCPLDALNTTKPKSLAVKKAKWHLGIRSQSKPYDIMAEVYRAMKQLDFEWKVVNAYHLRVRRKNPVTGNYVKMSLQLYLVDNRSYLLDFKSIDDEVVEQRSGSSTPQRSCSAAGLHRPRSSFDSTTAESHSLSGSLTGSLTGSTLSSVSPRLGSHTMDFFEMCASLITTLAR
T2 sequence (Q9Y478 whole entry): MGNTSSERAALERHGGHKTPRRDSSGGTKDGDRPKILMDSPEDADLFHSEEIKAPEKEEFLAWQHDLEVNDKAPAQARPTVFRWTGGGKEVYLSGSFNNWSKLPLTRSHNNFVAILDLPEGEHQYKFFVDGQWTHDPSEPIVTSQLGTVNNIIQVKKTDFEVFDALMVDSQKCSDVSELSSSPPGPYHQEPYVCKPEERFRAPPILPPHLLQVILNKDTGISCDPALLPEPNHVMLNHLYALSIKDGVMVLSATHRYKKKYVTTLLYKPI
T2 sequence (P54619 whole entry): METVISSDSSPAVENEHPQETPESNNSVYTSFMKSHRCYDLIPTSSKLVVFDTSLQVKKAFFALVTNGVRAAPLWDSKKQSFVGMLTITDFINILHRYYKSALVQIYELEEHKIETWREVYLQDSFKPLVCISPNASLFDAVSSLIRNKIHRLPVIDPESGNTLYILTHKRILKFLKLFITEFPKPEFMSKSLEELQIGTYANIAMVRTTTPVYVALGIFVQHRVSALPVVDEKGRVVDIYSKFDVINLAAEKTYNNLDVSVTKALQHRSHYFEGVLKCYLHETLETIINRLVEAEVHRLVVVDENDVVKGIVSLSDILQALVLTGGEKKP
T5 sequence (P54646 whole entry): as the sequence (P54646 whole entry) above
T5 sequence (O43741 whole entry): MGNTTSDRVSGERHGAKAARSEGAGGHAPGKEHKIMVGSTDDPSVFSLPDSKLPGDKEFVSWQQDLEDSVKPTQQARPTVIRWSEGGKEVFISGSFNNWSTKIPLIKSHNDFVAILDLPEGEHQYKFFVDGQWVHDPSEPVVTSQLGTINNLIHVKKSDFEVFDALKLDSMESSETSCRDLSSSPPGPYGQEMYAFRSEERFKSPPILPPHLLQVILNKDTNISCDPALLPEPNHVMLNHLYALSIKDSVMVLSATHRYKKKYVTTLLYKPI
T5 sequence (P54619 whole entry): as the sequence (P54619 whole entry) above
T1 sequence (P54646 whole entry): as the sequence (P54646 whole entry) above
T1 sequence (Q9Y478 whole entry): as the sequence (Q9Y478 whole entry) above
T1 sequence (P54619 whole entry R299G): as the sequence (P54619 whole entry) above, with R299G counted along it
T3 sequence (P54646 whole entry): as the sequence (P54646 whole entry) above
T3 sequence (Q9Y478 whole entry S108A): as the sequence (Q9Y478 whole entry) above, with S108A counted along it
T3 sequence (P54619 whole entry): as the sequence (P54619 whole entry) above
T4 sequence (Q13131 whole entry): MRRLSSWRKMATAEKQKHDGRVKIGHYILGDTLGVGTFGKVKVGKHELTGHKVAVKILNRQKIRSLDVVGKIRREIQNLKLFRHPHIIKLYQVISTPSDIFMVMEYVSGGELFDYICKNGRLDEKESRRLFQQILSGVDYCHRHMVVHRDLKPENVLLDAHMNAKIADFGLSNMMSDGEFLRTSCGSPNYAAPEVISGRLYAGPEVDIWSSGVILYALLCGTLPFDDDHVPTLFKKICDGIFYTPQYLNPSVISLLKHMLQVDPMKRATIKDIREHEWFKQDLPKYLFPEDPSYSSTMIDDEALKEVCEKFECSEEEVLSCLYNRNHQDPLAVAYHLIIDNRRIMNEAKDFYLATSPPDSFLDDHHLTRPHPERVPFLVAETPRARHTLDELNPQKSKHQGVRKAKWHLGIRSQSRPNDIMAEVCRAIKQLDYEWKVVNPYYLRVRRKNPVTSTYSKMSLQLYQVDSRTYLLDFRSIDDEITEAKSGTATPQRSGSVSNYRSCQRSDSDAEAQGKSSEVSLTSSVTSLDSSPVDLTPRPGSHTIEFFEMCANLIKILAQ
T4 sequence (Q9Y478 whole entry): as the sequence (Q9Y478 whole entry) above
T4 sequence (P54619 whole entry): as the sequence (P54619 whole entry) above

In the case of `Nc1ncnc2c1ncn2[C@@H]1O[C@H](COP(=O)(O)O)[C@@H](O)[C@H]1O` [AMP, reference compound], the “activation of AMPK α2β1γ1 γ1 R298G mutant complexes” value in data set [1] was “impaired”.

For the compound `COc1cc(O)c2c(c1)CCc1cc(O)c(O)cc1-2` [Compound 2, 7-Methoxy-9,10-dihydrophenanthrene-2,3,5-triol], the “phosphorylation of the AMPK substrate ACC (pACC HTRF)” value (shortened to “phosphorylation”) in [2] was “increase”. Besides, on AMPKα2β1γ1 (211), the “activation of bacterially-expressed AMPKα2β1γ1 complexes” value is “activate”.

`Oc1ccc2c(c1)CCc1cccc(O)c1-2` [Compound 3, 9,10-Dihydrophenanthrene-2,5-diol]: the “phosphorylation” value in data set [2] is on record as “increase”. Besides, on AMPKα2β1γ1 (211), the “activation of bacterially-expressed AMPKα2β1γ1 complexes” value is reported as “activate”.

As to `Oc1ccc2c(c1)CCc1cc(O)cc(O)c1-2` [Compound 4, 9,10-Dihydrophenanthrene-2,4,7-triol], in data set [2], the “phosphorylation” value is on record as “increase”. In addition, the “activation of AMPK complexes with the β1 S108A mutation” value in [3] is on record as “did not activate”. Besides, the “activation of bacterially-expressed AMPKα1β1γ1 complexes” value at AMPKα1β1γ1 (111) was “activates”. Further, at AMPKα2β1γ1 (211), the “activation of bacterially-expressed AMPKα2β1γ1 complexes” value is recorded as “activate”. Also, in data set [4], the “fold increase in glucose uptake relative to control” value is roughly 2 fold. Further, the “activation of β2-containing AMPK complexes (α2β2γ1)” value at AMPK α2β2γ1 (221) is given as “did not activate”. For the same compound, the “rate of lipogenesis (DPM per μg of protein)” value in the data set with primary hepatocytes is reported as “dose-dependent decrease”. Moreover, in data set [5], the “activation of α2β1γ1 ΔCBM mutant” value is reported as “did not activate”.

Regarding `COc1cc(O)c2c(c1)CCc1ccc(O)cc1-2` [Compound 5, 7-Methoxy-9,10-dihydrophenanthrene-3,5-diol], the “phosphorylation” value in data set [2] was “increase”. The “activation of bacterially-expressed AMPKα2β1γ1 complexes” value on AMPKα2β1γ1 (211) is “activate”.

With `N#CC(C#N)=NNc1ccc(OC(F)(F)F)cc1` [FCCP, carbonyl cyanide P-(trifluoromethoxy) phenylhydrazone], the “cell viability (MTT, percentage of viable cells)” value in data set [6] is recorded as “robust decrease in cell viability”.

Regarding `CC[C@H]1/C=C/C=C/C[C@@H](C)[C@H](O)[C@@](C)(O)C(=O)[C@@H](C)[C@H](O)[C@@H](C)C(=O)[C@@H](C)[C@H](O)[C@@H](C)/C=C/C(=O)O[C@@H]2[C@H](C)[C@H](CC1)O[C@]1(CC[C@H](C)[C@H](C[C@@H](C)O)O1)[C@H]2C` [Oligomycin], the “cell viability (MTT, percentage of viable cells)” value in data set [6] is reported as “robust decrease in cell viability”.
